The source of these data is patent US20180154170A1, “METHODS AND COMPOSITIONS FOR TREATING MENTAL DISORDERS AND CONDITIONS” (priority 2015, published 2018).

In test [1] the test system is magnocellular and parvocellular BLA neurons. Particulars: bath application 10 μM; cells clamped at 0 mV; 10 Hz train; n=6 magnocellular, n=6 parvocellular.
Experimental: Male mice (mean-PND 45 days) were anesthetized by isoflurane and their brains were dissected. By using a vibratome (VT1000S, Leica) 300 μm-thick parasagittal slices containing the basolateral amygdala were prepared in oxygenated cutting solution at ˜4° C. Slices were then incubated at −23° C. in oxygenated artificial cerebrospinal fluid (ACSF). The cutting solution contained 3 mM KCl, 0.5 mM CaCl2, 10 mM MgCl2, 25 mMNaHCO3, 1.2 mM NaHPO4, 10 mM d-glucose, 230 mM sucrose, saturated with 95% O/5% CO2 (pH 7.3, osmolarity 340 mOsm). […]
Whole-cell recordings in current-clamp or voltage-clamp mode were performed by using an infrared differential interference contrast microscope (BX51, Olympus) with a water immersion 40× objective (N.A. 0.8), and equipped with four automatic manipulators (Luigs & Neumann) and a CCD camera (Orca R2, Hamamatsu). […] Access resistance was monitored throughout the duration of the experiment and data acquisition was suspended whenever the resting membrane potential was depolarized above −50 mV or the access resistance was beyond 20 MΩ. […]
Optogenetic stimulation was achieved through a 460-nm LED light source (XLED1, Lumen Dynamics) driven by TTL input with a delay onset of 25 μs (subtracted off-line). […] In voltage-clamp cells were held at 0 mV for IPSC measurements, whereas, in current mode, EPSP and action potentials were measured at resting potentials. […]
The subject of test [2] is AMPA and NMDA receptors in the NAcc. As to the kind of experiment: Tail suspension test with optical reactivation of dentate gyrus positive memory cells, glutamate antagonists infused into the NAcc. In kind it is in vivo. To be noted: stressed mice; bilateral infusion into NAcc (NBQX 22.3 mM, AP5 38.04 mM, 0.2 μl per hemisphere), 20 min before behavior; compared with saline. How it is done: Glutamate antagonists were bilaterally infused into the NAcc as follows: 0.2 μl per hemisphere of NBQX at a concentration of 22.3 mM to antagonize AMPA (α-amino-3-hydroxy-5-methyl-4-isoxazole propionic acid) receptors and 0.2 μl per hemisphere of AP5 at a concentration of 38.04 mM to antagonize NMDA (N-methyl-D-aspartate) receptors. Dopamine receptor antagonists were bilaterally infused into the NAcc as follows: 0.2 μl SCH23390 at a concentration of 6.16 mM to antagonize D1-like receptors and 0.2 μl raclopride at a concentration of 2.89 mM to antagonize D2-like receptors. A 26-gauge stainless steel double internal cannula (PlasticsOne) was used to bilaterally infuse each drug; the internal cannula was connected with a microsyringe pump by a PE20 tube to control the injection rate at 100 nl min^−1. The injection cannula was left connected for 5 min before removal to allow for diffusion. Finally, all behavior was performed 20 min following drug infusion.
Fibre optic implants on experimental mice were plugged into a patch cord before the tail suspension test. Each subject was hung by its tail from a bar 40 cm from the ground with a single piece of autoclave tape. […] An experimenter blind to each mouse condition and light treatment scored all the tail suspension videos by measuring the total time in seconds that each mouse spent struggling throughout the protocol.

For test [3] the following is noted: reported in reference 28; cited from earlier work.

On to `COc1ccc(-c2ccc(=N)n(CCCC(=O)O)n2)cc1` [gabazine], for which the “inhibitory postsynaptic currents (IPSCs) evoked by optogenetic stimulation of Ppp1r1b-ChR2+ and Rspo2-ChR2+ fibers” value in test [1] was “blocked”.
Regarding `NC(CCCP(=O)(O)O)C(=O)O` (stereo not shown) [AP5], the “behavioral effects of optically reactivating dentate gyrus cells labelled by a positive experience in the TST” value in test [2] is reported as “blocked”.
With `NS(=O)(=O)c1cccc2c1c([N+](=O)[O-])cc1nc(O)c(O)nc12` [NBQX], the “behavioral effects of optically reactivating dentate gyrus cells labelled by a positive experience in the TST” value in test [2] is on record as “blocked”.
Turning to `CNC1(c2ccccc2Cl)CCCCC1=O` (stereo not shown) [ketamine], the “antidepressant effect in patients” value in test [3] is on record as “rapid effects in a subset of patients”.
